Measured values: patent US20250353891A1 (MEDIMMUNE LIMITED, priority 2022, published 2025)
Starred links: 1 amine or outer side, 2 acyl side, 3 side chain; linkers in the order of their positions; H or OH if unused. Non-standard residues stand in square brackets, D forms with d. Residues, ends and D or L forms follow the SMILES beside them. Groups on a side chain read outwards from the residue. *: point of attachment. C18 diacid = O=C(O)CCCCCCCCCCCCCCCCC(=O)*; γGlu = O=C(O)[C@H](CCC(=O)[*:2])N[*:1]; Stearoyl = CCCCCCCCCCCCCCCCCC(=O)*; Palmitoyl = CCCCCCCCCCCCCCCC(=O)*; αMeF = C[C@](N)(Cc1ccccc1)C(=O)O; PEG2 = NCCOCCOCCC(=O)O; AEEA = NCCOCCOCC(=O)O; Aib = CC(C)(N)C(=O)O

Key:
[1] = target: human GLP-1 receptor (hGLP-1R) (Homo sapiens, UniProt P43220); experiment: cAMP production (HTRF) in CHO cells expressing hGLP-1R; format: cell-based; set-up: expressed in transfected cells; details: for EC50: Table 6, peptides modified at position 17, cAMP in CHO hGLP-1R cells, geometric mean, read-out: hGLP-1R EC50; for % Relative Potency Ratio: Table 6, % GLP-1R activity relative to GLP-1 / % GlucR activity relative to glucagon
Chain of human GLP-1 receptor (hGLP-1R) (P43220 24-463): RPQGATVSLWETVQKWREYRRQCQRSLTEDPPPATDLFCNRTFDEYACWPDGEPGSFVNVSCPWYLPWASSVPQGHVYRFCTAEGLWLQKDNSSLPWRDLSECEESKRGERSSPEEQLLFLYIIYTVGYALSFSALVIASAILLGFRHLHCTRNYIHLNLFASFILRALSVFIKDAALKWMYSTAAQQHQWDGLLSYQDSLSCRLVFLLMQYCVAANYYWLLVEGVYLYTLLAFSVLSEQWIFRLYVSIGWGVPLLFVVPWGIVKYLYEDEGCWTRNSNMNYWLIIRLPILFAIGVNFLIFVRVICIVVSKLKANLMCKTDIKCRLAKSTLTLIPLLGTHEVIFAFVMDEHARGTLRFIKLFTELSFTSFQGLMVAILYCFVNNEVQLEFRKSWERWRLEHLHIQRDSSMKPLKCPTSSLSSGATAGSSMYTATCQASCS
Summary of the method: (§1)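 Cells were resuspended in assay buffer at batch-optimized density, typically 1×10^5 cells/mL for hGLP-1R and 2×10^5 cells/mL for hGCGR. After 30 min incubation at room temperature with compound, cAMP was measured by two-step HTRF. EC50 values came from 4-parameter logistic fits of % Delta F.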

[2] = target: human glucagon receptor (hGCGR) (Homo sapiens, UniProt P47871); experiment: cAMP production (HTRF) in CHO cells expressing hGCGR; format: cell-based; set-up: expressed in transfected cells; details: Table 6, peptides modified at position 17; cAMP in CHO hGCGR cells; geometric mean; read-out: hGluc-R EC50
Chain of human glucagon receptor (hGCGR) (P47871 26-477): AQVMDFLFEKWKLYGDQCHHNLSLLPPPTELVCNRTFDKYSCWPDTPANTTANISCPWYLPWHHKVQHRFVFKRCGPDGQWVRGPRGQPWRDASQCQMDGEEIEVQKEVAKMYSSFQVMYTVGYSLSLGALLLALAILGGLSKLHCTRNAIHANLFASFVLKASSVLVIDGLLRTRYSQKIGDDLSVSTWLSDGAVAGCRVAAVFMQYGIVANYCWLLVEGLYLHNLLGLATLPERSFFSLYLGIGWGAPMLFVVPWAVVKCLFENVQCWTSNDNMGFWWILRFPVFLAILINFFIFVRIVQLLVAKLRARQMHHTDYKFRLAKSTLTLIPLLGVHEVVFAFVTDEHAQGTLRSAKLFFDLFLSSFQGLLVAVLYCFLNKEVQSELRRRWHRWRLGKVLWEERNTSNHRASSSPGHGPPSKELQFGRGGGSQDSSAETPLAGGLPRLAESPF
Summary of the method: as §1

## CCCCCCCCCCCCCCCC(=O)N[C@@H](CCC(=O)N[C@@H](CCC(=O)NCCOCCOCCC(=O)NCCOCCOCCC(=O)NCCCC[C@H](NC(=O)[C@H](CO)NC(=O)[C@H](CC(=O)O)NC(=O)[C@H](CC(C)C)NC(=O)C(C)(C)NC(=O)[C@H](CCCCN)NC(=O)[C@H](CO)NC(=O)[C@@H](NC(=O)[C@H](CC(=O)O)NC(=O)[C@H](CO)NC(=O)[C@@H](NC(=O)[C@](C)(Cc1ccccc1)NC(=O)[C@H](CO)NC(=O)CNC(=O)[C@H](CCC(N)=O)NC(=O)[C@H](CO)NC(=O)[C@@H](N)Cc1c[nH]cn1)[C@@H](C)O)C(C)C)C(=O)N[C@@H](C)C(=O)N[C@@H](C)C(=O)N[C@@H](CCC(N)=O)C(=O)N[C@@H](CC(=O)O)C(=O)N[C@@](C)(Cc1ccccc1)C(=O)N[C@H](C(=O)N[C@@H](CCC(N)=O)C(=O)N[C@@H](Cc1c[nH]cn1)C(=O)N[C@H](C(=O)N[C@@H](C)C(=O)N[C@@H](CC(N)=O)C(N)=O)[C@@H](C)CC)C(C)C)C(=O)O)C(=O)O [Peptide 106] (H-HSQGS[αMeF]TSDVSK[Aib]LDSK([PEG2-PEG2-γGlu-γGlu-Palmitoyl])AAQD[αMeF]VQHIAN-NH2)
[1]
  EC50: 0.00682 nM
  % Relative Potency Ratio: 10.7
[2]
  EC50: 0.0368 nM

## CCCCCCCCCCCCCCCC(=O)N[C@@H](CCC(=O)N[C@@H](CCC(=O)NCCOCCOCCC(=O)NCCOCCOCCC(=O)NCCCC[C@H](NC(=O)[C@H](CO)NC(=O)[C@H](CC(=O)O)NC(=O)[C@H](CC(C)C)NC(=O)C(C)(C)NC(=O)[C@H](CCCCN)NC(=O)[C@H](CO)NC(=O)[C@@H](NC(=O)[C@H](CC(=O)O)NC(=O)[C@H](CO)NC(=O)[C@@H](NC(=O)[C@](C)(Cc1ccccc1)NC(=O)[C@H](CO)NC(=O)CNC(=O)[C@H](CCC(N)=O)NC(=O)[C@H](CO)NC(=O)[C@@H](N)Cc1c[nH]cn1)[C@@H](C)O)C(C)C)C(=O)N[C@@H](CCC(N)=O)C(=O)N[C@@H](C)C(=O)N[C@@H](CCC(N)=O)C(=O)N[C@@H](CC(=O)O)C(=O)N[C@@](C)(Cc1ccccc1)C(=O)N[C@H](C(=O)N[C@@H](CCC(N)=O)C(=O)N[C@@H](Cc1c[nH]cn1)C(=O)N[C@H](C(=O)N[C@@H](C)C(=O)N[C@@H](CC(N)=O)C(N)=O)[C@@H](C)CC)C(C)C)C(=O)O)C(=O)O [Peptide 107] (H-HSQGS[αMeF]TSDVSK[Aib]LDSK([PEG2-PEG2-γGlu-γGlu-Palmitoyl])QAQD[αMeF]VQHIAN-NH2; N-terminus assumed)
[1]
  EC50: 0.0659 nM
  % Relative Potency Ratio: 3.0
[2]
  EC50: 0.0991 nM

## CC[C@H](C)[C@H](NC(=O)C(C)(C)NC(=O)[C@H](CCC(N)=O)NC(=O)[C@@H](NC(=O)[C@](C)(Cc1ccccc1)NC(=O)[C@H](CC(=O)O)NC(=O)[C@H](CCC(N)=O)NC(=O)[C@H](C)NC(=O)[C@H](C)NC(=O)[C@H](CCCCNC(=O)COCCOCCNC(=O)COCCOCCNC(=O)CC[C@H](NC(=O)CCCCCCCCCCCCCCCCC(=O)O)C(=O)O)NC(=O)[C@H](CO)NC(=O)[C@H](CC(=O)O)NC(=O)[C@H](CC(C)C)NC(=O)C(C)(C)NC(=O)[C@H](CCCCN)NC(=O)[C@H](CO)NC(=O)[C@@H](NC(=O)[C@H](CC(=O)O)NC(=O)[C@H](CO)NC(=O)[C@@H](NC(=O)[C@](C)(Cc1ccccc1)NC(=O)[C@H](CO)NC(=O)CNC(=O)[C@H](CCC(N)=O)NC(=O)[C@H](CO)NC(=O)[C@@H](N)Cc1c[nH]cn1)[C@@H](C)O)C(C)C)C(C)C)C(=O)N[C@@H](C)C(=O)N[C@@H](CC(N)=O)C(N)=O [Peptide 108] (H-HSQGS[αMeF]TSDVSK[Aib]LDSK([AEEA-AEEA-γGlu-C18 diacid])AAQD[αMeF]VQ[Aib]IAN-NH2; N-terminus assumed)
[1]
  EC50: 3.2 nM
[2]
  EC50: > 27.1 nM

## CC[C@H](C)[C@H](NC(=O)C(C)(C)NC(=O)[C@H](CCC(N)=O)NC(=O)[C@@H](NC(=O)[C@](C)(Cc1ccccc1)NC(=O)[C@H](CC(=O)O)NC(=O)[C@H](CCC(N)=O)NC(=O)[C@H](C)NC(=O)[C@H](C)NC(=O)[C@H](CCCCNC(=O)COCCOCCNC(=O)COCCOCCNC(=O)CC[C@H](NC(=O)CCCCCCCCCCCCCCCCC(=O)O)C(=O)O)NC(=O)[C@H](CO)NC(=O)[C@H](CC(=O)O)NC(=O)[C@H](CC(C)C)NC(=O)C(C)(C)NC(=O)[C@H](CCCCNC(C)=O)NC(=O)[C@H](CO)NC(=O)[C@@H](NC(=O)[C@H](CC(=O)O)NC(=O)[C@H](CO)NC(=O)[C@@H](NC(=O)[C@](C)(Cc1ccccc1)NC(=O)[C@H](CO)NC(=O)CNC(=O)[C@H](CCC(N)=O)NC(=O)[C@H](CO)NC(=O)[C@@H](N)Cc1c[nH]cn1)[C@@H](C)O)C(C)C)C(C)C)C(=O)N[C@@H](C)C(=O)N[C@@H](CC(N)=O)C(N)=O [Peptide 109] (H-HSQGS[αMeF]TSDVSK(Ac)[Aib]LDSK([AEEA-AEEA-γGlu-C18 diacid])AAQD[αMeF]VQ[Aib]IAN-NH2; N-terminus assumed)
[1]
  EC50: 0.698 nM
[2]
  EC50: > 26.8 nM

## CCCCCCCCCCCCCCCCCC(=O)N[C@@H](CCC(=O)N[C@@H](CCC(=O)NCCOCCOCCC(=O)NCCOCCOCCC(=O)NCCCC[C@H](NC(=O)[C@H](CO)NC(=O)[C@H](CC(=O)O)NC(=O)[C@H](CC(C)C)NC(=O)C(C)(C)NC(=O)[C@H](CCCCNC(C)=O)NC(=O)[C@H](CO)NC(=O)[C@@H](NC(=O)[C@H](CC(=O)O)NC(=O)[C@H](CO)NC(=O)[C@@H](NC(=O)[C@](C)(Cc1ccccc1)NC(=O)[C@H](CO)NC(=O)CNC(=O)[C@H](CCC(N)=O)NC(=O)[C@H](CO)NC(=O)[C@@H](N)Cc1c[nH]cn1)[C@@H](C)O)C(C)C)C(=O)N[C@@H](C)C(=O)N[C@@H](C)C(=O)N[C@@H](CCC(N)=O)C(=O)N[C@@H](CC(=O)O)C(=O)N[C@@](C)(Cc1ccccc1)C(=O)N[C@H](C(=O)N[C@@H](CCC(N)=O)C(=O)NC(C)(C)C(=O)N[C@H](C(=O)N[C@@H](C)C(=O)N[C@@H](CC(N)=O)C(N)=O)[C@@H](C)CC)C(C)C)C(=O)O)C(=O)O [Peptide 110] (H-HSQGS[αMeF]TSDVSK(Ac)[Aib]LDSK([PEG2-PEG2-γGlu-γGlu-Stearoyl])AAQD[αMeF]VQ[Aib]IAN-NH2; N-terminus assumed)
[1]
  % Relative Potency Ratio: 152.9
[2]
  EC50: 0.0485 nM

## CCCCCCCCCCCCCCCC(=O)N[C@@H](CCC(=O)N[C@@H](CCC(=O)NCCOCCOCCC(=O)NCCOCCOCCC(=O)NCCCC[C@H](NC(=O)[C@H](CO)NC(=O)[C@H](CC(=O)O)NC(=O)[C@H](CC(C)C)NC(=O)[C@@H](NC(=O)[C@H](CCCCN)NC(=O)[C@H](CO)NC(=O)[C@@H](NC(=O)[C@H](CC(=O)O)NC(=O)[C@H](CO)NC(=O)[C@@H](NC(=O)[C@](C)(Cc1ccccc1)NC(=O)[C@H](CO)NC(=O)CNC(=O)[C@H](CCC(N)=O)NC(=O)[C@H](CO)NC(=O)[C@@H](N)Cc1c[nH]cn1)[C@@H](C)O)C(C)C)[C@@H](C)CC)C(=O)N[C@@H](C)C(=O)N[C@@H](C)C(=O)N[C@@H](CCC(N)=O)C(=O)N[C@@H](CC(=O)O)C(=O)N[C@@](C)(Cc1ccccc1)C(=O)N[C@H](C(=O)N[C@@H](CCC(N)=O)C(=O)NC(C)(C)C(=O)N[C@H](C(=O)N[C@@H](C)C(=O)N[C@@H](CC(N)=O)C(N)=O)[C@@H](C)CC)C(C)C)C(=O)O)C(=O)O [Peptide 111] (H-HSQGS[αMeF]TSDVSKILDSK([PEG2-PEG2-γGlu-γGlu-Palmitoyl])AAQD[αMeF]VQ[Aib]IAN-NH2)
[1]
  EC50: 0.00192 nM
  % Relative Potency Ratio: 2.2
[2]
  EC50: 0.00209 nM

## CCCCCCCCCCCCCCCC(=O)N[C@@H](CCC(=O)N[C@@H](CCC(=O)NCCOCCOCCC(=O)NCCOCCOCCC(=O)NCCCC[C@H](NC(=O)[C@H](CO)NC(=O)[C@H](CC(=O)O)NC(=O)[C@H](CC(C)C)NC(=O)[C@@H](NC(=O)[C@H](CCCCN)NC(=O)[C@H](CO)NC(=O)[C@@H](NC(=O)[C@H](CC(=O)O)NC(=O)[C@H](CO)NC(=O)[C@@H](NC(=O)[C@](C)(Cc1ccccc1)NC(=O)[C@H](CO)NC(=O)CNC(=O)[C@H](CCC(N)=O)NC(=O)[C@H](CO)NC(=O)[C@@H](N)Cc1c[nH]cn1)[C@@H](C)O)C(C)C)[C@@H](C)CC)C(=O)N[C@@H](C)C(=O)N[C@@H](C)C(=O)N[C@@H](CCC(N)=O)C(=O)N[C@@H](CC(=O)O)C(=O)N[C@@](C)(Cc1ccccc1)C(=O)N[C@H](C(=O)N[C@@H](CCC(N)=O)C(=O)N[C@H](C(=O)N[C@H](C(=O)N[C@@H](C)C(=O)N[C@@H](CC(N)=O)C(N)=O)[C@@H](C)CC)[C@@H](C)CC)C(C)C)C(=O)O)C(=O)O [Peptide 112] (H-HSQGS[αMeF]TSDVSKILDSK([PEG2-PEG2-γGlu-γGlu-Palmitoyl])AAQD[αMeF]VQIIAN-NH2)
[1]
  EC50: 0.00336 nM
  % Relative Potency Ratio: 1.6
[2]
  EC50: 0.00269 nM

## CCCCCCCCCCCCCCCC(=O)N[C@@H](CCC(=O)N[C@@H](CCC(=O)NCCOCCOCCC(=O)NCCOCCOCCC(=O)NCCCC[C@H](NC(=O)[C@H](CO)NC(=O)[C@H](CC(=O)O)NC(=O)[C@H](CC(C)C)NC(=O)[C@@H](NC(=O)[C@H](CCCCN)NC(=O)[C@H](CO)NC(=O)[C@@H](NC(=O)[C@H](CC(=O)O)NC(=O)[C@H](CO)NC(=O)[C@@H](NC(=O)[C@](C)(Cc1ccccc1)NC(=O)[C@H](CO)NC(=O)CNC(=O)[C@H](CCC(N)=O)NC(=O)[C@H](CO)NC(=O)[C@@H](N)Cc1c[nH]cn1)[C@@H](C)O)C(C)C)[C@@H](C)CC)C(=O)N[C@@H](C)C(=O)N[C@@H](C)C(=O)N[C@@H](CCC(N)=O)C(=O)N[C@@H](CC(=O)O)C(=O)N[C@@](C)(Cc1ccccc1)C(=O)N[C@H](C(=O)N[C@@H](CCC(N)=O)C(=O)N[C@H](C(=O)N[C@H](C(=O)N[C@@H](C)C(=O)NCC(N)=O)[C@@H](C)CC)[C@@H](C)CC)C(C)C)C(=O)O)C(=O)O [Peptide 113] (H-HSQGS[αMeF]TSDVSKILDSK([PEG2-PEG2-γGlu-γGlu-Palmitoyl])AAQD[αMeF]VQIIAG-NH2; N-terminus assumed)
[1]
  EC50: 0.00161 nM
  % Relative Potency Ratio: 5.6
[2]
  EC50: 0.0046 nM
